Reference: patent publication US20030229114A1, “Pyrroloquinoline quinone drugs as a neuroprotectant and methods of use thereof” (priority 2002, published 2003)
“And” between values parts separate entries of the source, which are not always exact repeats. Equal values may be shown once. “Also recorded” adds a separate entry of the source. Read-outs that look alike come from different tables or passages of the source.

Tests used:
[1] = test system: cultured rat forebrain neurons; test: Survival assay of neuronal cultures (Alamar Blue reduction, 24 hr); conditions: for EC50: Rattus norvegicus, Neuron, read-out: EC50 of the protective effect against SIN-1 toxicity, SIN-1 1 mM
Protocol: Neuronal cultures were prepared from embryonic day 16 Sprague Dawley rat fetuses using methods similar to those previously described (Dichter, 1978) but modified to produce cultures that contained <1% astrocytes (Rosenberg and Aizenman, 1989; Rosenberg, 1991; Rosenberg et al., 1992; Wang et al., 1998). Cultures were initially plated on poly-L-lysine-coated 24-well plastic plates (Costar, Cambridge, Mass.) using an 80:10:10 (v/v) mixture ofDMEM (Life Technologies 11960-010), Ham's F-12 (Sigma, N-4888), heat-inactivated iron-supplemented calf serum (Hyclone A2151), containing 2 mM glutamine, 25 mM HEPES, 24 U/ml penicillin, and 24 μg/ml streptomycin and maintained in a 5% CO2 (balance air) incubator at 36° C. Cell proliferation was inhibited by exposure to 5 μM cytosine arabinoside at 24 hr in vitro for 72 hr. On the fourth day of culture, the medium was completely removed and replaced with 90% MEM, 10% Nuserum IV (Collaborative Research), 2 mM glutamine, 5 mM HEPES, containing 50 units/ml superoxide dismutase (Boehringer Mannheim, Indianapolis, Ind.), 20 units/ml catalase (Sigma CV-40), total glucose 11 mM, and total sodium bicarbonate 9.3 mM, plus 2% B27 supplement (Life Technologies 17504-036). Medium was not subsequently changed. To prevent evaporation of water, culture dishes were kept in wet dishes containing filter paper that was always kept wet.
In all experiments, 24-well plates were first washed three times in Hank's balanced salt solution (HBSS) containing 0.1% bovine serum albumin (BSA), and then they were placed in Earle's balanced salt solution (EBSS, which is composed of 116 mM NaCl, 5.4 mM KCl, 1.8 mM CaCl2, 0.8 mM MgSO4, 26 mM NaHCO3, 1 mM NaH2PO4 and 5.5 mM D-glucose). Experiments were carried out exclusively in EBSS. […] PQQ was directly dissolved in EBSS.
Survival of cells was determined after 24 hr exposure to the test compounds by assessing the ability of cultures to reduce Alamar Blue (Trek Diagnostic Systems, Inc., Westlake, Ohio) as an index of viability (McGahon et al., 1995). Details of this procedure have been provided elsewhere (Back et al., 1998, 1999). In brief, the test medium was removed after 24 hr, and then replaced with EBSS plus a 1:100 dilution of Alamar Blue. After 2 hr exposure, the medium was diluted 50-fold with water, and the fluorescence intensity was determined in a Hitachi fluorescence spectrophotometer using an excitation wavelength of 530 nm and an emission wavelength of 590 nm. The photomultiplier voltage was set at 700 V. In some experiments, the cell viability determined by Alamar Blue was compared to that determined by the assay of lactate dehydrogenase (LDH) release (Koh and Choi, 1987).

[2] = ESR, in vitro; Urakami et al (1997); read-out: IC50 in scavenging superoxide; cited from earlier work

With `O=C(O)c1cc(C(=O)O)c2c(n1)C(=O)C(=O)c1cc(C(=O)O)[nH]c1-2` [PQQ, Pyrroloquinoline quinone] the “Effect on neurotoxicity induced by NMDA plus DETA/NO” value ([1]; 24 hr exposure, PQQ 100 μM) was “fully blocked; also recorded: block”, the Neuronal survival ([1]; DEA/NO 1 mM in the presence of PQQ 100 μM) was 39.7±16.8 % of control and the Neuronal survival ([1]; DETA/NO 1 mM in the presence of PQQ 100 μM) was 30.7±7.7 % of control. For the same molecule, the Neuronal survival ([1]; DPT/NO 1 mM in the presence of PQQ 100 μM) was 1.7±0.7 % of control, the “Cell (neuronal) survival” value ([1]; ONOO− 100 μM in the presence of PQQ 100 μM) was 11±6% and 11±8% and the “Effect on neurotoxicity caused by nitric oxide donors” value ([1]; PQQ 100 μM, DEA/NO, DPT/NO, DETA/NO 1 mM) was “nor did it prevent cell death; also recorded: no protective effect”. The “Effect on neurotoxicity induced by ONOO− (peroxynitrite)” value ([1]; PQQ 100 μM, ONOO− 100 μM) was “potentiated; also recorded: significantly potentiates”, the “Effect on neurotoxicity induced by SIN-1” value ([1]; PQQ 100 μM, SIN-1 1 mM, no catalase) was “completely protected; also recorded: completely blocks” and the EC50 ([1]; representative experiment FIG. 2B) was 22.6 µM. For the same molecule, the EC50 ([1]; three experiments) was 15 ± 8.4 µM, the “Effect on neurotoxicity induced by NMDA plus DETA/NO” value ([1]; four hour exposure, PQQ 100 μM, NMDA 20 μM, DETA/NO 300 μM) was “completely blocked; also recorded: blocks” and the IC50 [2] was 0.038 µM.
